Data as given in BigSolDB 2.1.

O=c1c(-c2ccc(O)cc2)coc2cc(O)cc(O)c12
solubility (mole fraction)
Conditions | 288.2 K | 293.2 K | 298.2 K | 303.2 K | 308.2 K | 313.2 K | 318.2 K | 323.2 K | 328.2 K
in acetone | 0.00477 | 0.00526 | 0.00607 | 0.007 | 0.00754 | 0.00805 | 0.00856 | 0.00879 | 0.0089
in chloroform | 2.41e-06 | 2.82e-06 | 3.22e-06 | 3.6e-06 | 3.99e-06 | 4.36e-06 | 4.51e-06 | 4.7e-06 | 4.74e-06
in ethyl acetate | 0.00183 | 0.0022 | 0.00241 | 0.00273 | 0.00335 | 0.00367 | 0.00413 | 0.00471 | 0.00539
in methanol | 0.000935 | 0.00127 | 0.00145 | 0.00163 | 0.00192 | 0.00212 | 0.00266 | 0.00323 | 0.00372
in n-hexane | 6.96e-06 | 8.12e-06 | 9e-06 | 1.01e-05 | 1.09e-05 | 1.14e-05 | 1.24e-05 | 1.3e-05 | 1.41e-05
in water | 4.72e-08 | 6.95e-08 | 8.46e-08 | 1.05e-07 | 1.25e-07 | 1.67e-07 | 1.99e-07 | 2.7e-07 | 3.68e-07
